# In patent US6642205B2, “Methods and compositions for reducing side effects in chemotherapeutic treatments” (Pro-Pharmaceuticals, Inc., priority 2000, dated 2003):
# Legend:
# [1] = Side effects (deaths) after single dose intravenous injection in healthy mice, 20 days observation; type: in vivo, male BDF1 mice; conditions: for Deaths per group / Life span after treatment (except survived animals): single i.v.; for Deaths per group: six animals each; for Life span after treatment (except survived animals): one value per dead animal; for toxicity compared to Adriamycin: healthy mice, single i.v. dose
# From the text: (§1) Male BDF1 mice were used as the experimental animals for measuring side effects of therapeutic preparations. Mice were acclimated in the laboratory one week prior to experimentation. The animals were housed five per cage in a 12-hour light/dark cycle. The animals received filtered water and sterile rodent food ad libitum. The animals were observed daily and clinical signs were noted. Weight of the animals was in the range of 19-21 g at the day of treatment initiation. The mice were healthy, not previously used in other experimental procedures.
# [2] = tested on: lymphocyte leukemia P-388; test: Antitumor effect on subcutaneously implanted lymphocyte leukemia P-388 in mice, single i.v. injection; type: in vivo, male BDF1 mice; conditions: for Average weight gain/loss from day 1 to day 7 / Nonspecific deaths per group / Average survival time, excluding nonspecific deaths / Average survival time, including nonspecific deaths / average weight loss of an animal: single i.v.; for Nonspecific deaths per group / animals that lived longer than the duration of the study (20 days): six animals per group; for Average survival time, excluding nonspecific deaths / Average survival time, including nonspecific deaths: study duration 20 days; for toxicity compared to Adriamycin: tumor-bearing mice, nonspecific deaths
# Description: “Nonspecific death” is death of a treated tumor-bearing animal if its day of death was statistically less (P≦0.05) than the corresponding day of death of a tumor-bearing animal in the untreated control group.
# The response of subcutaneously implanted lymphocyte leukemia P-388 (Arthur D. Little Inc., Cambridge, Mass.) to treatment with a Galactomycin I, Galactomycin II, and Doxorubicin was evaluated in male BDF1 mice.
# as §1, with “Mice” for “Male BDF1 mice were used as the experimental animals for measuring side effects of therapeutic preparations. Mice”
# There were a total of twelve groups, 10 animals in two control groups (saline only), and six animals in each in 10 agent treatment groups. The groups were treated 24 hours after tumor implantation, as follows:
# Tumor cells were implanted in a sub-cutaneous injection of one million cells per mouse and allowed to grow for 24 hours. After that, Adriamycin, Galactomycin I and Galactomycin II were administered as 0.7-10 mg/mL solutions by a single i.v. injection.
# Study duration was twenty days after tumor implantation, or nineteen days after treatment initiation.
SMILES,Average weight gain/loss from day 1 to day 7 ([2]; dose 7 mg/kg),Nonspecific deaths per group ([2]; dose 7 mg/kg),"Average survival time, excluding nonspecific deaths ([2]; dose 7 mg/kg) [days]","Average survival time, including nonspecific deaths ([2]; dose 7 mg/kg) [days]",Average weight gain/loss from day 1 to day 7 ([2]; dose 14 mg/kg),"Average survival time, excluding nonspecific deaths ([2]; dose 14 mg/kg) [days]","Average survival time, including nonspecific deaths ([2]; dose 14 mg/kg) [days]",Deaths per group ([1]; dose 15 mg/kg),Deaths per group ([1]; dose 20 mg/kg),Deaths per group ([1]; dose 25 mg/kg),Deaths per group ([1]; dose 30 mg/kg),Deaths per group ([1]; dose 40 mg/kg),Deaths per group ([1]; dose 80 mg/kg),Deaths per group ([1]; dose 100 mg/kg),toxicity compared to Adriamycin [1],LD50 (estimated from Table 2 data) ([1]; single injection in mice) [mg/kg],Nonspecific deaths per group ([2]; dose 14 mg/kg),Average weight gain/loss from day 1 to day 7 ([2]; dose 40 mg/kg) [g],"Average survival time, excluding nonspecific deaths ([2]; dose 40 mg/kg) [days]","Average survival time, including nonspecific deaths ([2]; dose 40 mg/kg) [days]",further results
"COc1cccc2c1C(=O)c1c(O)c3c(c(O)c1C2=O)C[C@@](O)(C(=O)CO)C[C@@H]3O[C@H]1C[C@H](N)[C@H](O)[C@H](C)O1 [Adriamycin, 14-hydroxydaunomycin, reference compound]",-0.5 g,0,15.5,15.5,-1.8 g,>19,> 15,–,–,–,–,–,–,–,–,–,–,–,–,–,"Deaths per group ([1]; dose 21 mg/kg): Three; Deaths per group ([1]; dose 21 mg/kg, listed as Doxorubicin): 3; LD50 at 20 days ([1]; male, BDF1, mouse, in vivo, intravenous, 21 mg/kg, single injection in mice, read-out: LD50 (estimated from Table 2 data)): ~21 mg/kg; average weight loss of an animal ([2]; dose 14 mg/kg): 1.8 g; animals that lived longer than the duration of the study (20 days) ([2]; dose 14 mg/kg): two"
"COc1cccc2c1C(=O)c1c(O)c3c(c(O)c1C2=O)CC(O)(C(=O)CO)CC3OC1CC(NCC(O)C(O)C(O)C(O)COC2OC(CO)C(O)C(O)C2O)C(O)C(C)O1 [Galactomycin I, N-[α-D-galactopyranosyl-(1→6)-β-O-D-sorbityl]doxorubicin]",+1.7 g,0,11.7,11.7,+2.3 g,12.2,12.2,0,0,0,0,1,6,6,significantly less toxic,50 to 60,0,-0.9,>18,> 16,"Deaths per group ([1]; dose 10 mg/kg): 0; Life span after treatment (except survived animals) ([1]; dose 40 mg/kg): 2 days; Average weight gain/loss from day 1 to day 7 ([2]; dose 20 mg/kg): -0.8 g; Nonspecific deaths per group ([2]; dose 20 mg/kg): 0; Average survival time, excluding nonspecific deaths ([2]; dose 20 mg/kg): 16.3 days; Average survival time, including nonspecific deaths ([2]; dose 20 mg/kg): 16.3 days; average weight loss of an animal ([2]; dose 40 mg/kg): 0.9 g; animals that lived longer than the duration of the study (20 days) ([2]; dose 40 mg/kg): two; toxicity compared to Adriamycin [2]: significantly less toxic"
"Br.COc1cccc2c1C(=O)c1c(O)c3c(c(O)c1C2=O)CC(O)(C(=O)CO)CC3OC1CC(NCC(O)C(O)C(OC2OC(CO)C(O)C(O)C2O)C(O)CO)C(O)C(C)O1 [Galactomycin II, N-[β-D-galactopyranosyl-(1→4)-β-O-D-sorbityl]doxorubicin]",+4.3 g,0,11.7,11.7,+0.8 g,12.0,12.0,0,0,0,0,0,1,3,significantly less toxic,~100,0,-1.1,15.0,15.0,"Deaths per group ([1]; dose 50 mg/kg): 0; Life span after treatment (except survived animals) ([1]; dose 80 mg/kg): 2 days; Nonspecific deaths per group ([2]; dose 40 mg/kg): 0; Average weight gain/loss from day 1 to day 7 ([2]; dose 80 mg/kg): -1.0 g; average weight loss of an animal ([2]; dose 80 mg/kg): 1.0 g; Average survival time, excluding nonspecific deaths ([2]; dose 80 mg/kg): >18 days; Average survival time, including nonspecific deaths ([2]; dose 80 mg/kg): > 16 days; animals that lived longer than the duration of the study (20 days) ([2]; dose 80 mg/kg): two; toxicity compared to Adriamycin [2]: significantly less toxic"
